25 molecules from ChEMBL document CHEMBL1145199, “Design, synthesis, and SAR of a novel pyrazinone series with non-nucleoside HIV-1 reverse transcriptase inhibitory activity” (J Med Chem, 2005) can be followed below.

Molecules are shown by their SMILES.

Holding throughout (type): functional, organism-based
The test system of assay [1] is Human immunodeficiency virus 1. Briefly: Inhibitory concentration against 100I mutant was determined.
The test system of assay [2] is Human immunodeficiency virus 1. Briefly: Inhibitory concentration against 103N mutant was determined.
Assay [3] concerns Human immunodeficiency virus 1. Nature of the assay: Inhibitory concentration against 181C mutant was determined.
Assay [4] relates to Human immunodeficiency virus 1. Nature of the assay: Inhibitory concentration against 188L mutant was determined.
Assay [5] relates to Human immunodeficiency virus 1. Briefly: Inhibitory concentration against wild-type HIV-1 LAI Virus was determined.
Assay [6] relates to Human immunodeficiency virus 1. Briefly: Inhibitory concentration against 188L mutant strain was determined.
For assay [7], the system named is Human immunodeficiency virus 1. Nature of the assay: Inhibitory concentration against 100I and 103N mutant strains was determined.
Assay [8] concerns Human immunodeficiency virus 1. Briefly: Inhibitory concentration against 103N and 181C mutant strains was determined.
For assay [9], the system named is Human immunodeficiency virus 1. Briefly: Inhibitory concentration against 100I and 103N mutant was determined.
The subject of assay [10] is Human immunodeficiency virus 1. Nature of the assay: Inhibitory concentration against 103N and 181C mutant was determined.
Where [11] appears, read: Human immunodeficiency virus 1, read-out: IC50.

As for `Cc1ccccc1Oc1nc(Nc2ccc(Cl)cc2)c(=O)n(C)c1C`, the IC50 in assay [1] (setting [11]) is 5010 nM; in [2] (setting [11]), above 10000 nM; in [3] (setting [11]), above 10000 nM; in assay [4] (setting [11]), above 10000 nM; in assay [5] (setting [11]), 100 nM.

`Cc1cc(C)c(S(=O)(=O)c2nc(Nc3ccc(C#N)cc3)c(=O)n(C)c2C)c(C)c1`: the IC50 was 158 nM in assay [6]; 25 nM in assay [1] (setting [11]); 320 nM in [2] (setting [11]); 63 nM in assay [3] (setting [11]); 3 nM in assay [5] (setting [11]).

Turning to `Cc1ccccc1Oc1nc(Nc2ccc(C#N)cc2)c(=O)n(C)c1C`, the IC50 was found to be 398 nM in assay [1] (setting [11]); 398 nM in assay [2] (setting [11]); 2510 nM in assay [3] (setting [11]); 2510 nM in assay [4] (setting [11]); 5 nM in [5] (setting [11]).

`Cc1cc(C)c(S(=O)(=O)c2cn(C)c(=O)c(Nc3ccc(C#N)cc3)n2)c(C)c1`: the IC50 was above 10000 nM in [1] (setting [11]); above 10000 nM in assay [2] (setting [11]); 398 nM in [3] (setting [11]); above 10000 nM in [4] (setting [11]); 8 nM in [5] (setting [11]).

As for `Cc1cc(C)c(Sc2cn(C)c(=O)c(Nc3ccc(Cl)cc3)n2)c(C)c1`, the IC50 in [1] (setting [11]) was above 10000 nM; in [2] (setting [11]), above 10000 nM; in assay [3] (setting [11]), 6300 nM; in [4] (setting [11]) it was 10000 nM; in assay [5] (setting [11]), 79 nM.

On to `O=C1Nc2ccc(Cl)cc2[C@@](C#CC2CC2)(C(F)(F)F)O1` [EFAVIRENZ], for which the IC50 in [1] (setting [11]) is 40 nM; in assay [2] (setting [11]) it was 40 nM; in [3] (setting [11]), 2 nM; in assay [7], above 10000 nM; in assay [8], 40 nM.

As for `Cc1ccccc1Oc1cn(C)c(=O)c(Nc2ccc(C#N)cc2)n1`, the IC50 in [1] (setting [11]) came out at 1260 nM; in [2] (setting [11]) it was 794 nM; in [3] (setting [11]), 2510 nM; in assay [4] (setting [11]), 2000 nM; in assay [5] (setting [11]), 4 nM.

As to `Cc1ccc(Oc2cn(C)c(=O)c(Nc3ccc(C#N)cc3)n2)c(C)c1`, the IC50 in assay [1] (setting [11]) was 316 nM; in assay [2] (setting [11]), 32 nM; in assay [3] (setting [11]), 159 nM; in assay [4] (setting [11]) it was 398 nM; in assay [5] (setting [11]) it was below 1 nM.

As for `Cc1cc(C#N)cc(C)c1Oc1nc(Nc2ccc(C#N)cc2)c(=O)n(C)c1C`, the IC50 in assay [9] came to 158 nM; in [10] it was 63 nM; in assay [3] (setting [11]), 25 nM; in [5] (setting [11]) it was 6 nM.

As to `Cc1ccc(Oc2cn(C)c(=O)c(Nc3ccc(F)cc3)n2)c(C)c1`, the IC50 was above 10 µmol in [1]; above 10 µmol in [2]; above 10 µmol in assay [3]; above 10 µmol in assay [4]; 1.258 µmol in assay [5].

As for `Cc1ccc(Oc2nc(Nc3ccc(Cl)cc3)c(=O)n(C)c2C)c(C)c1`, the IC50 in assay [1] (setting [11]) is 3980 nM; in [2] (setting [11]), 3980 nM; in assay [3] (setting [11]), above 10000 nM; in assay [4] (setting [11]), above 10000 nM; in assay [5] (setting [11]), 126 nM.

Take `Cc1ccc(Oc2cn(C)c(=O)c(Nc3ccc(C(F)(F)F)cc3)n2)c(C)c1`: the IC50 in assay [5] (setting [11]) came out at 501 nM.

For `Cc1ccc(Sc2nc(Nc3ccc(Cl)cc3)c(=O)n(C)c2C)c(C)c1`, the IC50 in [5] (setting [11]) amounted to 501 nM.

Regarding `Cc1ccc(Oc2cn(C)c(=O)c(Nc3ccc(Cl)cc3)n2)c(C)c1`, the IC50 in assay [1] (setting [11]) was 5010 nM; in assay [2] (setting [11]) it was 5010 nM; in assay [3] (setting [11]), 5010 nM; in [4] (setting [11]), above 10000 nM; in assay [5] (setting [11]), 25 nM.

For the molecule `Cc1cc(C)c(Oc2nc(Nc3ccc(C#N)cc3)c(=O)n(C)c2C)c(C)c1`, the IC50 was above 50 nM in assay [1] (setting [11]); above 158 nM in assay [2] (setting [11]); above 501 nM in assay [3] (setting [11]); above 200 nM in assay [4] (setting [11]); 5 nM in assay [5] (setting [11]).

`Cc1ccccc1Sc1cn(C)c(=O)c(Nc2ccc(C#N)cc2)n1`: the IC50 was above 10000 nM in [1] (setting [11]); above 10000 nM in [2] (setting [11]); above 10000 nM in [3] (setting [11]); above 10000 nM in [4] (setting [11]); 20 nM in assay [5] (setting [11]).

Regarding `Cc1ccccc1Oc1cn(Cc2ccccc2)c(=O)c(Nc2ccc(C#N)cc2)n1`, in assay [5] (setting [11]), the IC50 was determined as 316 nM.

Regarding `Cc1ccc(Sc2cn(C)c(=O)c(Nc3ccc(C#N)cc3)n2)c(C)c1`, the IC50 in assay [1] (setting [11]) is above 10000 nM; in [2] (setting [11]), above 10000 nM; in [3] (setting [11]) it was above 10000 nM; in assay [4] (setting [11]), above 10000 nM; in assay [5] (setting [11]), 5 nM.

Regarding `Cc1ccccc1Sc1nc(Nc2ccc(C#N)cc2)c(=O)n(C)c1C`, the IC50 in assay [1] (setting [11]) is above 10000 nM; in assay [2] (setting [11]), above 10000 nM; in [3] (setting [11]), above 10000 nM; in assay [4] (setting [11]), above 10000 nM; in [5] (setting [11]) it was 40 nM.

With `Cc1ccc(Oc2nc(Nc3ccc(C#N)cc3)c(=O)n(C)c2C)c(C)c1`, the IC50 in [9] was found to be 158 nM; in assay [10], 1000 nM; in assay [1] (setting [11]), 25 nM; in assay [2] (setting [11]), 32 nM; in [3] (setting [11]) it was 63 nM; in [4] (setting [11]), 158 nM. Also, the IC50 in assay [5] (setting [11]) was found to be 3 nM.

As for `Cc1ccc(Nc2nc(Oc3ccc(C)cc3C)cn(C)c2=O)cc1`, the IC50 in assay [5] was above 100 µmol.

Molecule `Cc1ccc(Oc2cn(C)c(=O)c(Nc3ccccc3)n2)c(C)c1` showed an IC50 in assay [5] of 0.251 µmol.

For `Cc1ccccc1Sc1nc(Nc2ccc(C#N)cc2)c(O)nc1C`, the IC50 in [1] (setting [11]) was 5010 nM; in assay [2] (setting [11]), 631 nM; in assay [3] (setting [11]), 5010 nM; in assay [4] (setting [11]) it was 631 nM; in assay [5] (setting [11]), 40 nM.

On to `Cc1cc(C)c(Sc2cn(C)c(=O)c(Nc3ccc(C#N)cc3)n2)c(C)c1`, for which the IC50 in assay [1] (setting [11]) was above 10000 nM; in assay [2] (setting [11]), 631 nM; in assay [3] (setting [11]) it was 1000 nM; in assay [4] (setting [11]) it was 631 nM; in assay [5] (setting [11]), 16 nM.

For `Cc1ccc(Oc2cn(Cc3ccccc3)c(=O)c(Nc3ccc(C#N)cc3)n2)c(C)c1`, the IC50 in assay [1] (setting [11]) was 631 nM; in assay [2] (setting [11]) it was 631 nM; in assay [3] (setting [11]) it was 1580 nM; in [4] (setting [11]), above 10000 nM; in [5] (setting [11]), 32 nM.
